The text below walks through data of patent US20260167656A1, “PHOSPHORAMIDATE COMPOUNDS AND USES THEREOF” (ALLORION THERAPEUTICS INC, priority 2022, published 2026).

For assay [1], the system named is non-small cell lung cancer cell line H460. The experiment in a line: In vitro human cancer cell line cytotoxicity (proliferation) assay in H460, CellTiter-Glo, 72 hours. It counts as cell-based. As to conditions: DMSO condition (no AKR1C3 inhibitor), read-out: CTG H460: Avg IC50 (nM) [Assay Condition: DMSO]. The procedure, abridged: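 H460 cells were seeded at 3×10^3 per well and grown 24 h at 37 °C, 5% CO2 before compound addition from 10 mM DMSO stocks. After 72 h further incubation, viability was measured by CellTiter-Glo, and IC50 values in nM were derived from the proliferation data.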

Assay [2] has the same test system. The experiment in a line: H460 proliferation assay in the presence of 3 uM ASP9521 (AKR1C3 specific inhibitor). As to conditions: H460 cells, CellTiter-Glo, 72 hours, in the presence of 3 uM ASP9521 added 4 hours prior to compounds; read-out: CTG H460: Avg IC50 (nM) [Assay Condition: ASP9521]. The format is cell-based, human. The procedure, abridged:
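H460 cells pre-incubated 24 h, then exposed to compounds for 72 h at 37 °C, 5% CO2. Viability read by CellTiter-Glo. ASP9521 (3 uM, AKR1C3 inhibitor) added 4 h before compounds.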
Background: In ATP-based viability assays light output follows the ATP content of the culture.

[3] abbreviates: Homo sapiens, NCI-H460, 72 h, H460 cells.

In general, IC50 refers to the concentration that gives 50% inhibition.

Bounds are passed on as bounds.

As to `C[C@@H]1CN1P(=O)(COc1c(F)c(F)c(OCc2ccc([N+](=O)[O-])c(Oc3ccc(C(=O)N(C)C)cc3)c2)c(F)c1F)N1C[C@H]1C` (stereo partly shown) [Example 15], the figures for the IC50 in assay [1] (setting [3]) and in assay [2] were less than 10 nM and 947 nM, respectively.
With `O=C(c1cccc(Oc2c([N+](=O)[O-])ccc3c2CCC3OP(=O)(N2CC2)N2CC2)c1)N1C[C@H]2CC[C@@H](C1)O2` (stereo partly shown) [Example 249], the values for the IC50 in assay [1] (setting [3]) and in assay [2] were less than 10 nM and 1340 nM, respectively.
As to `O=[N+]([O-])c1ccc2c(c1Oc1cccc(OC3CCC3)c1)CCC2OP(=O)(N1CC1)N1CC1` (racemic) [Example 459], the IC50 in assay [1] (H460 cells) is less than 10 nM; in assay [2], 845 nM.
With `Cn1ccc2ccc(Oc3cc4c(cc3[N+](=O)[O-])CCC4OP(=O)(N3CC3)N3CC3)cc2c1=O` (stereo not shown) [Example 157], the results for the IC50 in assay [1] (H460 cells) and in assay [2] were 10 to 50 nM and 1240 nM, respectively.
`CC(OP(=O)(N1C[C@H]1C)N1C[C@H]1C)c1ccc([N+](=O)[O-])c(Oc2ccc(-c3ccccc3)cc2)c1` (stereo partly shown) [Example 218]: the IC50 in assay [1] (setting [3]) is less than 10 nM; in assay [2] it was 1370 nM.
As to `CSc1ccc(Oc2c([N+](=O)[O-])ccc3c2CCC3OP(=O)(N2CC2)N2CC2)cc1` (racemic) [Example 461], the IC50 in assay [1] (H460 cells) is less than 10 nM; in assay [2], 547 nM.
The like results for `O=C(NC1CC1)c1cc(Oc2c([N+](=O)[O-])ccc3c2CC[C@@H]3OP(=O)(N2CC2)N2CC2)ccc1F` [Example 261] were, in that order, 10 to 50 nM and 5690 nM.
As for `Cc1csc(-c2cccc(Oc3c([N+](=O)[O-])ccc4c3CC[C@@H]4OP(=O)(N3CC3)N3CC3)c2)n1` [Example 343], the IC50 is less than 10 nM in assay [1] (setting [3]) and 2300 nM in assay [2].
`O=[N+]([O-])c1cc2c(cc1Oc1ccc(-c3ccc(F)cc3)c(F)c1)C(OP(=O)(N1CC1)N1CC1)CC2` (stereo not shown) [Example 514]: the IC50 is less than 10 nM in assay [1] (H460 cells) and 993 nM in assay [2].
For the molecule `O=C(NC1CCC1)c1ccc(Oc2cc3c(cc2[N+](=O)[O-])CC[C@H]3OP(=O)(N2CC2)N2CC2)cc1` [Example 526], the figures for the IC50 in assay [1] (H460 cells) and in assay [2] were less than 10 nM and 661 nM, respectively.
For `Cc1cccc(-c2ccc(Oc3c([N+](=O)[O-])ccc4c3CC[C@H]4OP(=O)(N3CC3)N3CC3)cc2)n1` [Example 279], in that order: less than 10 nM and 1310 nM.
The like results for `O=[N+]([O-])c1ccc2c(c1Oc1cccc(-c3ccc(F)cn3)c1)CCC2OP(=O)(N1CC1)N1CC1` (racemic) [Example 320] were, in that order, less than 10 nM and 2230 nM.
With `O=[N+]([O-])c1ccc2c(c1Oc1cc(F)cc(OCC3CC3)c1)CC[C@@H]2OP(=O)(N1CC1)N1CC1` [Example 503], the IC50 is less than 10 nM in assay [1] (setting [3]) and 1660 nM in assay [2].
For `Cc1ncn(-c2cccc(Oc3c([N+](=O)[O-])ccc4c3CC[C@@H]4OP(=O)(N3CC3)N3CC3)c2)n1` [Example 500], in that order: less than 10 nM and 1300 nM.
For `CN1CCOc2ccc(Oc3cc4c(cc3[N+](=O)[O-])CCC4OP(=O)(N3CC3)N3CC3)cc2C1=O` (stereo not shown) [Example 158], in that order: 50 to 100 nM and 4680 nM.
For the molecule `Cn1nccc1-c1cccc(Oc2c([N+](=O)[O-])ccc3c2CCC3OP(=O)(N2CC2)N2CC2)c1` (stereo not shown) [Example 366], the IC50 in assay [1] (H460 cells) is less than 10 nM; in assay [2] it was 636 nM.
For `O=[N+]([O-])c1ccc2c(c1Oc1ccc(F)c(-c3ncns3)c1)CC[C@@H]2OP(=O)(N1CC1)N1CC1` [Example 347], the IC50 in assay [1] (setting [3]) was less than 10 nM; in assay [2], 1300 nM.
Take `O=[N+]([O-])c1ccc2c(c1Oc1ccccc1)OCCC2OP(=O)(N1CC1)N1CC1` (stereo not shown) [Example 127, 7-nitro-8-phenoxy-3,4-dihydro-2H-1-benzopyran-4-yl bis(aziridin-1-yl)phosphinate]: the results for the IC50 in assay [1] (setting [3]) and in assay [2] were 10 to 50 nM and 291 nM, respectively.
The like results for `O=[N+]([O-])c1ccc2c(c1Oc1ccc(F)c(-c3ccccc3)c1)CC[C@H]2OP(=O)(N1CC1)N1CC1` [Example 313] were, in that order, less than 10 nM and 1260 nM.
As for `C[C@@H](OP(=O)(N1CC1)N1CC1)c1cc2cc(Oc3cccc(C(=O)N(C)C)c3)c([N+](=O)[O-])cc2o1` [Example 566], the IC50 in assay [1] (H460 cells) was 10 to 50 nM; in assay [2], 6380 nM.
With `O=[N+]([O-])c1ccc2c(c1Oc1ccc(F)c(-c3ccc(F)cc3)c1)CC[C@H]2OP(=O)(N1CC1)N1CC1` [Example 306], the IC50 is less than 10 nM in assay [1] (Homo sapiens, NCI-H460, H460 cells) and 1990 nM in assay [2].
In the case of `Cn1ccc2cc(Oc3c([N+](=O)[O-])ccc4c3CCC4OP(=O)(N3CC3)N3CC3)ccc21` (stereo not shown) [Example 384], the IC50 in assay [1] (setting [3]) was less than 10 nM; in assay [2] it was 1490 nM.
Take `CC(C)C1CN1P(=O)(OCc1ccc([N+](=O)[O-])c(Oc2cccc(C(=O)N(C)C)c2)c1)N1CC1C(C)C` (stereo not shown) [Example 11]: the IC50 is no less than 100 nM in assay [1] (setting [3]) and 2050 nM in assay [2].
In the case of `CN1Cc2ccc(Oc3cc4cc(COP(=O)(N5CC5)N5CC5)oc4cc3[N+](=O)[O-])cc2C1=O` [Example 569], the half-maximal inhibitory concentration (IC50) was less than 10 nM in assay [1] (H460 cells) and 937 nM in assay [2].
As to `CC(OP(=O)(N1CC1)N1CC1)c1cc2cc(Oc3ccc4c(c3)OC(F)(F)O4)c([N+](=O)[O-])cc2o1` (stereo not shown) [Example 546], the figures for the IC50 in assay [1] (setting [3]) and in assay [2] were less than 10 nM and 4690 nM, respectively.
In the case of `O=C(c1cccc(Oc2c([N+](=O)[O-])ccc3c2CCC3OP(=O)(N2CC2)N2CC2)c1)N1CCCCC1` (stereo not shown) [Example 236], the IC50 was less than 10 nM in assay [1] (H460 cells) and 715 nM in assay [2].
Regarding `CC(OP(=O)(N1CC1)N1CC1)c1ccc([N+](=O)[O-])c(COc2ccncc2)c1` (stereo not shown) [Example 5], the IC50 was no less than 100 nM in assay [1] (setting [3]) and greater than 10000 nM in assay [2].
In the case of `Cn1ccc2c(F)cc(Oc3c([N+](=O)[O-])ccc4c3CC[C@@H]4OP(=O)(N3CC3)N3CC3)cc21` (single isomer, unassigned) [Example 377], the IC50 is less than 10 nM in assay [1] (setting [3]) and 1330 nM in assay [2].
Regarding `O=[N+]([O-])c1ccc2c(c1Oc1cncc(C3CC3)c1)CC[C@H]2OP(=O)(N1CC1)N1CC1` [Example 318], the 50% inhibitory concentration (IC50) in assay [1] (setting [3]) is less than 10 nM; in assay [2], 1070 nM.
On to `C[C@H](OP(=O)(N1CC1)N1CC1)c1cc2cc(Oc3cccc(-c4ccccn4)c3)c([N+](=O)[O-])cc2o1` [Example 554], for which the IC50 in assay [1] (H460 cells) was less than 10 nM; in assay [2] it was 6070 nM.
For `O=[N+]([O-])c1ccc2c(c1Oc1ccc(-c3cnn(C4CC4)c3)cc1)CCC2OP(=O)(N1CC1)N1CC1` (stereo not shown) [Example 79], the figures for the IC50 in assay [1] (H460 cells) and in assay [2] were 10 to 50 nM and 1610 nM, respectively.
The like results for `C[C@@H](OP(=O)(N1CC1)N1CC1)c1cc2cc(Oc3cccc(-c4ccccn4)c3)c([N+](=O)[O-])cc2o1` [Example 553] were, in that order, 10 to 50 nM and 2950 nM.
For `Cn1cc(-c2ccc(Oc3cc4c(cc3[N+](=O)[O-])CCC4OP(=O)(N3CC3)N3CC3)cc2)cn1` (stereo not shown) [Example 181], in that order: less than 10 nM and 942 nM.
With `O=[N+]([O-])c1ccc2c(c1Oc1cccc(-c3ccnn3CC(F)F)c1)CC[C@@H]2OP(=O)(N1CC1)N1CC1` [Example 367], the IC50 is less than 10 nM in assay [1] (setting [3]) and 321 nM in assay [2].
For `Cn1cc(-c2ccc(Oc3c([N+](=O)[O-])ccc4c3CCC4OP(=O)(N3CC3)N3CC3)cc2)ccc1=O` (stereo not shown) [Example 60], the IC50 in assay [1] (H460 cells) was no less than 100 nM; in assay [2], 1010 nM.
With `CN1CC(=O)N(c2cccc(Oc3c([N+](=O)[O-])ccc4c3CCC4OP(=O)(N3CC3)N3CC3)c2)CC1=O` (stereo not shown) [Example 122], the half-inhibitory concentration (IC50) in assay [1] (setting [3]) was 10 to 50 nM; in assay [2], 3090 nM.
Turning to `Cn1cc(-c2ccc(Oc3c([N+](=O)[O-])ccc4c3CCC4OP(=O)(N3CC3)N3CC3)cc2)ccc1=O` (stereo not shown) [Example 61], the IC50 in assay [1] (H460 cells) was 10 to 50 nM; in assay [2], 1010 nM.
Regarding `O=C(c1cccc(Oc2cc3cc(COP(=O)(N4CC4)N4CC4)oc3cc2[N+](=O)[O-])c1)N1CCCC1` [Example 530, (6-nitro-5-(3-(pyrrolidine-1-carbonyl)phenoxy)benzofuran-2-yl)methyl di(aziridin-1-yl)phosphinate], the IC50 is less than 10 nM in assay [1] (setting [3]) and 697 nM in assay [2].
With `Cc1noc(-c2ccc(Oc3c([N+](=O)[O-])ccc4c3CC[C@@H]4OP(=O)(N3CC3)N3CC3)cc2)n1` [Example 283], the figures for the IC50 in assay [1] (H460 cells) and in assay [2] were less than 10 nM and 1460 nM, respectively.
Take `COc1cc(Oc2c([N+](=O)[O-])ccc3c2CC[C@@H]3OP(=O)(N2CC2)N2CC2)cc(-c2ncc(F)cn2)c1` [Example 365]: the IC50 in assay [1] (setting [3]) was less than 10 nM; in assay [2], 1320 nM.
Take `CS(=O)(=O)c1ccc(Oc2c([N+](=O)[O-])ccc3c2CCC3OP(=O)(N2CC2)N2CC2)cc1` (stereo not shown) [Example 504]: the IC50 was less than 10 nM in assay [1] (H460 cells) and 288 nM in assay [2].
The like results for `O=[N+]([O-])c1ccc2c(c1Oc1ccc(-c3cccnc3)cc1)CC[C@H]2OP(=O)(N1CC1)N1CC1` [Example 272] were, in that order, 10 to 50 nM and 3120 nM.
For `Cc1ccn(-c2cccc(Oc3c([N+](=O)[O-])ccc4c3CC[C@H]4OP(=O)(N3CC3)N3CC3)c2)n1` [Example 430], the values for the IC50 in assay [1] (setting [3]) and in assay [2] were less than 10 nM and 4860 nM, respectively.
For `CNC(=O)c1ccc(Oc2cc3c(cc2[N+](=O)[O-])CCC3OP(=O)(N2CC2)N2CC2)cc1` (single isomer, unassigned) [Example 151], the IC50 in assay [1] (H460 cells) was less than 10 nM; in assay [2], 306 nM.
